According to publication PMC9737391, “Trifluoromethylcinnamanilide Michael Acceptors for Treatment of Resistant Bacterial Infections” (International Journal of Molecular Sciences, 2022):
Converted amounts (≈) assume the structure as drawn. “And” between values parts separate entries of the source, which are not always exact repeats. Equal entries are not always repeated.

Experiments:
[1] = Lipophilicity determination by RP-HPLC; assay type: physicochemical; details: RP-HPLC, logarithm of capacity factor k
Method: It is evident from the graphs in Figure 1 that the correlation coefficients of the dependences of log k/log D6.5/log D7.4 have a value of r = 0.999 (n = 32), which means that the investigated compounds behave insignificantly differently in aqueous media with different pH. Moreover, lipophilicity was calculated as log P and Clog P using two prediction programs. […] Therefore, only log P values predicted by ACD/Percepta can be used for correlations with experimental values. These matches are shown in the graphs in Figure 2, and according to the correlation coefficient r~0.940 (n = 32), it can be argued that even the predicted lipophilicity values correlate with the experimentally measured ones. However, the largest variations were observed (no difference for series 1, 2) for compounds substituted with 2-Cl, 2-CF3, 2,5-Cl, 4-F, 4-CF3, and 3,5-F, 3,5-Cl. These are mainly substituents capable of forming hydrogen and other types of non-bonding interactions both with the surrounding environment and within the molecule. Overall, series 1 (3-CF3) is less lipophilic than series 2 (4-CF3), but the differences in the experimental data are insignificant. Unsubstituted derivatives 1a/2a are the least lipophilic compounds, while derivatives 1o/2o (3,5-Cl) and 1p/2p (3,5-CF3) are the most lipophilic compounds.
Experimental determination of lipophilicity values (log k, log D6.5, and log D7.4) was performed under the same conditions and on the same device as described by Strharsky et al..

[2] = test system: Staphylococcus aureus ATCC 29213; assay: MIC, microtitration broth method; assay type: cell-based; details: ATCC29213, S. aureus ATCC 29213
[3] = test system: methicillin-resistant S. aureus SA 3202 (MRSA1); assay: MIC, microtitration broth method; assay type: cell-based; details: Staphylococcus aureus; MRSA SA 3202
[4] = test system: methicillin-resistant S. aureus SA 630 (MRSA2); assay: MIC, microtitration broth method; assay type: cell-based; details: Staphylococcus aureus; MRSA SA 630
[5] = test system: methicillin-resistant S. aureus 63718 (MRSA3); assay: MIC, microtitration broth method; assay type: cell-based; details: Staphylococcus aureus; MRSA 63718
M. smegmatis ATCC 700084 = assay: In vitro antimycobacterial evaluation (MIC); assay type: cell-based, Mycobacterium smegmatis; details: Mycolicibacterium smegmatis, ATCC700084
[6] = test system: Staphylococcus aureus ATCC 29213; assay: MBC, agar aliquot subculture method; assay type: cell-based; details: ATCC29213, S. aureus ATCC 29213
[7] = test system: methicillin-resistant S. aureus SA 3202 (MRSA1); assay: MBC, agar aliquot subculture method; assay type: cell-based; details: Staphylococcus aureus; MRSA SA 3202
[8] = test system: methicillin-resistant S. aureus SA 630 (MRSA2); assay: MBC, agar aliquot subculture method; assay type: cell-based; details: Staphylococcus aureus; MRSA SA 630
[9] = test system: methicillin-resistant S. aureus 63718 (MRSA3); assay: MBC, agar aliquot subculture method; assay type: cell-based; details: Staphylococcus aureus; MRSA 63718
[10] = test system: human monocytic leukemia cell line THP-1; assay: In vitro cell viability (cytotoxicity screening); assay type: cell-based; details: 24 h, medium with 10% FBS, ± SD, n = 6
Method: The investigated anilides can be divided into three groups. […] Higher concentrations (than 10 or 30 µM) were not possible to evaluate due to precipitation of the tested compounds in water medium. Based on all these observations, it can be concluded that the high antimicrobial activity of 3,5-CF3-substituted compounds is associated with significant cytotoxic effect against eukaryotic cells. On the other hand, the other still effective compounds, especially agents 1j and 1o, have an insignificant toxic effect, which makes them interesting for further study.
Human monocytic leukemia THP-1 cells obtained from the European Collection of Cell Cultures (ECACC, Salisbury, UK) were used for in vitro antiproliferative assays. A recently described procedure was used.

S. aureus ATCC 29213 = assay: MTT assay, inhibition of bacterial respiration; assay type: cell-based, Staphylococcus aureus
From the text: The MTT assay can be used to assess cell growth by measuring respiration. Respiratory activity of bacterial cells (which is finally reflected in their viability) less than 70% after exposure to the MIC values for each tested compound is considered as a positive result of this assay. This low level of cell oxidative metabolism indicates inhibition of cell growth by inhibition of respiration. The lowest multiples of MIC values that achieved more than 70% inhibition of S. aureus ATCC 29213 viability (%) are shown in Table 3.
The percent inhibition of respiration of S. aureus ATCC 29213 was determined through the MTT assay. The assay was performed as described recently. The percent viability is calculated through the comparison of a measured value and that of the uninhibited control: % viability = OD570E/OD570P × 100, where OD570E is the reading from the compound-exposed cells, while OD570P is the reading from the uninhibited cells (positive control). Cytotoxic potential is determined by a percent viability of <70% [46, 47].

[11] = test system: Enterococcus faecalis ATCC 29212; assay: MIC, microtitration broth method; assay type: cell-based; details: ATCC29212, E. faecalis reference strain
[12] = test system: vancomycin-resistant E. faecalis VRE 342B (VRE1); assay: MIC, microtitration broth method; assay type: cell-based, Enterococcus faecalis
[13] = test system: vancomycin-resistant E. faecalis VRE 368 (VRE2); assay: MIC, microtitration broth method; assay type: cell-based, Enterococcus faecalis
[14] = test system: vancomycin-resistant E. faecalis VRE 725B (VRE3); assay: MIC, microtitration broth method; assay type: cell-based, Enterococcus faecalis
[15] = test system: Enterococcus faecalis ATCC 29212; assay: MBC, agar aliquot subculture method; assay type: cell-based; details: ATCC29212, E. faecalis reference strain
[16] = test system: vancomycin-resistant E. faecalis VRE 342B (VRE1); assay: MBC, agar aliquot subculture method; assay type: cell-based, Enterococcus faecalis
[17] = test system: vancomycin-resistant E. faecalis VRE 368 (VRE2); assay: MBC, agar aliquot subculture method; assay type: cell-based, Enterococcus faecalis
[18] = test system: vancomycin-resistant E. faecalis VRE 725B (VRE3); assay: MBC, agar aliquot subculture method; assay type: cell-based, Enterococcus faecalis
S. aureus/MRSA = assay: Antistaphylococcal activity, summary over strains; assay type: cell-based, Staphylococcus aureus
E. faecalis/VRE = assay: Anti-enterococcal activity, summary over strains; assay type: cell-based, Enterococcus faecalis
[19] = test system: M. smegmatis and M. marinum; assay: Antimycobacterial activity, summary over both strains; assay type: cell-based; details: average over the named compounds and strains; read-out: average MIC against M. smegmatis and M. marinum

Row | SMILES | log k [1] | MIC [2] | MIC [3] | MIC [4] | MIC [5] | MIC (M. smegmatis ATCC 700084) | MBC [6] | MBC [7] | MBC [8] | MBC [9] | IC50 [10] | Conc.: lowest multiple of MIC with at least 70% inhibition of respiratory activity (S. aureus ATCC 29213) | Conc.: the same concentration as multiple of MBC (S. aureus ATCC 29213) | melting point | further results
1 | O=C(/C=C/c1cccc(C(F)(F)F)c1)Nc1cccc(Cl)c1 [1f, (2E)-N-(3-Chlorophenyl)-3-[3-(trifluoromethyl)phenyl]prop-2-enamide] | 0.8016 | 12.3 µM (≈ 4.01 µg/mL) | 6.14 µM (≈ 2 µg/mL) | 6.14 µM (≈ 2 µg/mL) | 6.14 µM (≈ 2 µg/mL) | 24.6 µM (≈ 8.01 µg/mL) | 12.3 µM (≈ 4.01 µg/mL) | 6.14 µM (≈ 2 µg/mL) | 6.14 µM (≈ 2 µg/mL) | 12.3 µM (≈ 4.01 µg/mL) | > 10 µM | 1× MIC (1× MBC) | 1× MIC (1× MBC) | 126 to 128 °C | 
2 | O=C(/C=C/c1cccc(C(F)(F)F)c1)Nc1ccc(Cl)cc1 [1g, (2E)-N-(4-Chlorophenyl)-3-[3-(trifluoromethyl)phenyl]prop-2-enamide] | 0.7982 | 24.6 µM (≈ 8.01 µg/mL) | 12.3 µM (≈ 4.01 µg/mL) | 6.14 µM (≈ 2 µg/mL) | 12.3 µM (≈ 4.01 µg/mL) | 24.6 µM (≈ 8.01 µg/mL) | 49.1 µM (≈ 16 µg/mL) | 24.6 µM (≈ 8.01 µg/mL) | 6.14 µM (≈ 2 µg/mL) | 24.6 µM (≈ 8.01 µg/mL) | > 10 µM | 4 × MIC | 2 × MBC | 162 to 164 °C | 
3 | O=C(/C=C/c1cccc(C(F)(F)F)c1)Nc1cc(Cl)cc(Cl)c1 [1o, (2E)-N-(3,5-Dichlorophenyl)-3-[3-(trifluoromethyl)phenyl]prop-2-enamide] | 1.2028 | 0.694 µM (≈ 0.25 µg/mL) | 1.39 µM (≈ 0.501 µg/mL) | 0.694 µM (≈ 0.25 µg/mL) | 0.694 µM (≈ 0.25 µg/mL) | 11.1 µM (≈ 4 µg/mL) | 0.694 µM (≈ 0.25 µg/mL) | 2.78 µM (≈ 1 µg/mL) | 0.694 µM (≈ 0.25 µg/mL) | 1.39 µM (≈ 0.501 µg/mL) | > 30 µM | 0.25× MIC (0.25× MBC) | 0.25× MIC (0.25× MBC) | 124 to 126 °C | MIC [11]: 11.1 µM (≈ 4 µg/mL); MIC [12]: 22.2 µM (≈ 8 µg/mL); MIC [13]: 22.2 µM (≈ 8 µg/mL); MIC [14]: 22.2 µM (≈ 8 µg/mL); MBC [15]: 22.2 µM (≈ 8 µg/mL); MBC [16]: 22.2 µM (≈ 8 µg/mL); MBC [17]: 22.2 µM (≈ 8 µg/mL); MBC [18]: 22.2 µM (≈ 8 µg/mL); MIC (S. aureus/MRSA; Staphylococcus aureus, MRSA, average over the named compounds and strains, read-out: average MIC against S. aureus/MRSA): ~1.4 µM (≈ 0.504 µg/mL); antistaphylococcal MICs/MBCs (S. aureus/MRSA; range over S. aureus and MRSA isolates and over the named compounds): 0.15 to 5.57 µM and 0.146 to 5.57 µM; MIC (E. faecalis/VRE; Enterococcus faecalis, VRE, average over the named compounds and strains, read-out: average MIC against E. faecalis/VRE): ~15 µM (≈ 5.4 µg/mL); anti-enterococcal MICs/MBCs (E. faecalis/VRE; range over E. faecalis and VRE isolates and over the named compounds): 2.34 to 44.5 µM
4 | O=C(/C=C/c1cccc(C(F)(F)F)c1)Nc1cc(C(F)(F)F)cc(C(F)(F)F)c1 [1p, (2E)-N-[3,5-bis(Trifluoromethyl)phenyl]-3-[3-(trifluoromethyl)phenyl]prop-2-enamide] | 1.3648 | 1.17 µM (≈ 0.5 µg/mL) | 2.34 µM (≈ 1 µg/mL) | 1.17 µM (≈ 0.5 µg/mL) | 0.585 µM (≈ 0.25 µg/mL) | 9.36 µM (≈ 4 µg/mL) | 1.17 µM (≈ 0.5 µg/mL) | 2.34 µM (≈ 1 µg/mL) | 1.17 µM (≈ 0.5 µg/mL) | 1.17 µM (≈ 0.5 µg/mL) | 6.7 ± 1.1 µM | 1× MIC (1× MBC) | 1× MIC (1× MBC) | 147 to 149 °C | MIC [19]: ~4.1 µM (≈ 1.75 µg/mL)
